Here are results for two molecules from article PMC5694373 (European journal of pharmaceutical sciences : official …, 2017).

The conditions of series [1]: cited from earlier work; for human half-life: reported human half-life simulated in the HFIM.
Series [2] deals with wild-type MX/09 influenza. The class given is cell-based. The settings on record: oseltamivir 75 mg Q12 and/or zanamivir 600 mg Q12 exposures, alone or in combination, throughout the study.

Like-named read-outs stand apart in the source and are kept apart here.

As to `CC(=O)N[C@H]1[C@H]([C@H](O)[C@H](O)CO)OC(C(=O)O)=C[C@@H]1N=C(N)N` [Zanamivir, zanamivir], in series [1] (ref GlaxoSmithKline, 2009), the oral bioavailability entry is listed as “poor oral bioavailability” and the human half-life was 2.5 h.

Turning to Oseltamivir carboxylate, the human half-life in series [1] (ref Doucette and Aoki, 2001) was 8 h. The “effect on viral replication relative to no-treatment control” value in series [2] is reported as “suppressed the replication of MX/09”.
